Experiments:
[1] = compared with etoposide; cited from earlier work
[2] = system: Es-1 sulfatase; experiment: Substrate specificity: hydrolysis of etoposide derivatives (TLC); type: biochemical, Streptomyces griseorubiginosus S980-14; details: 0.6 u enzyme, 50 mM Tris-HCl pH 7.5, 37°C for 18 hours, silica gel TLC
Experimental: • (a) Optimum pH. The stock enzyme solution (0.6 u in 50 µl of 50 mM Tris-HCl, pH 7.5) was added to 100 µl each of the following buffers: 500 mM sodium acetate (pH 4.0-5.5), 500 mM Tris-maleate (pH 5.5-7.5), 500 mM Tris-HCl (pH 7.5-9.0), and 500 mM glycine-NaoH (pH 9.0-10.0). The substrate, p-nitrophenylsulfate, was dissolved in each of the above buffers (1 mg/ml). The enzyme-buffer solution (150 µl) was mixed with 50 µl of the substrate solution in the same buffer as the enzyme, and the mixture was incubated for 30 minutes at 37°C. The reaction was quenched by addition of 100 µl of 0.2 N sodium hydroxide solution. The enzyme activity in each buffer was determined spectrophotometrically by UV at 415 nm. […] The stock enzyme solution was dialyzed against water to remove salts. The dialyzed solution (10 µl) was mixed with 40 µl of 50 mM Tris-HCl buffer (pH 7.5). An aliquot (10 µl) of this solution was mixed with 40 µl each of the buffer listed in (a) and incubated for 30 minutes at 30°C. To this solution (50 µl) were added 100 µl of 500 mM Tris-HCl (pH 9.0) and 50 µl of substrate in water (1 mg/ml), and the mixture was incubated at 37°C for 30 minutes to determine the residual enzyme activity. […] Enzyme (0.6 u) in 150 µl of 50 mM Tris-HCl (pH 8.5) was incubated with p-nitrophenylsulfate in the same buffer (1 mg/ml, 50 µl) for 30 minutes at various temperatures. […] Enzyme preparations (0.6 u) in 50 mM Tris-HCl (150 µl, pH 8.5) were incubated for 15 minutes at various temperatures and then cooled in an ice bath. p-Nitrophenylsulfate in the same buffer (1 mg/ml, 50 µl) was added to the enzyme solution, and the mixture was incubated for 30 minutes at 37°C. […] Fifty µl of enzyme solution (0.6 u in 50 mM Tris-HCl, pH 8.5), 80 µl of 50 mM Tris-HCl (pH 8.5), 50 µl of p-nitrophenyl sulfate (1 mg/ml in same buffer), and 20 µl of ion (10 mM) were mixed. The solution was incubated for 30 minutes at 37°C. p-Nitrophenol released was spectrophotometrically assayed by UV at 415 nm. […] The protocol used in (e) was followed with the exception that 1 mM of an enzyme inhibitor was used instead of a metal ion. […] The protocol used in (e) was followed, except that 5 mM of a salt was used instead of 10 mM of a metal ion. […] Four etoposide derivatives were tested as substrate for the sulfatase of the invention. The substrates are: etoposide 4'-sulfate (III), 2'',3''-di-O-acetyl-etoposide-4'-sulfate (IV), etoposide 2''-sulfate (V), and etoposide 3''-sulfate (VI). […] After 18 hours, 100 µl of methanol was added, and 100 µl of sample was analyzed on a silica gel TLC plate using a solvent system consisting of chloroform-methanol (10:1 v/v). […]

[3] = system: Es-1 sulfatase; experiment: Substrate specificity: hydrolysis of BU-3285T (TLC, UV densitometry); type: biochemical, Streptomyces griseorubiginosus S980-14; details: 0.6 u Es-1 sulfatase, pH 8.5, 18 hours at 37°C, UV densitometry at 254 nm
Experimental: (§1) • (a) Optimum pH. The stock enzyme solution (0.6 u in 50 µl of 50 mM Tris-HCl, pH 7.5) was added to 100 µl each of the following buffers: 500 mM sodium acetate (pH 4.0-5.5), 500 mM Tris-maleate (pH 5.5-7.5), 500 mM Tris-HCl (pH 7.5-9.0), and 500 mM glycine-NaoH (pH 9.0-10.0). The substrate, p-nitrophenylsulfate, was dissolved in each of the above buffers (1 mg/ml). The enzyme-buffer solution (150 µl) was mixed with 50 µl of the substrate solution in the same buffer as the enzyme, and the mixture was incubated for 30 minutes at 37°C. The reaction was quenched by addition of 100 µl of 0.2 N sodium hydroxide solution. The enzyme activity in each buffer was determined spectrophotometrically by UV at 415 nm. […] The stock enzyme solution was dialyzed against water to remove salts. The dialyzed solution (10 µl) was mixed with 40 µl of 50 mM Tris-HCl buffer (pH 7.5). An aliquot (10 µl) of this solution was mixed with 40 µl each of the buffer listed in (a) and incubated for 30 minutes at 30°C. To this solution (50 µl) were added 100 µl of 500 mM Tris-HCl (pH 9.0) and 50 µl of substrate in water (1 mg/ml), and the mixture was incubated at 37°C for 30 minutes to determine the residual enzyme activity. […] After 18 hours, 100 µl of methanol was added, and 100 µl of sample was analyzed on a silica gel TLC plate using a solvent system consisting of chloroform-methanol (10:1 v/v). […]

[4] = system: Es-1 sulfatase; experiment: Effect of ions / EDTA treatment and Ca2+ recovery of sulfatase activity; type: biochemical, Streptomyces griseorubiginosus S980-14
Experimental: • (a) Optimum pH. The stock enzyme solution (0.6 u in 50 µl of 50 mM Tris-HCl, pH 7.5) was added to 100 µl each of the following buffers: 500 mM sodium acetate (pH 4.0-5.5), 500 mM Tris-maleate (pH 5.5-7.5), 500 mM Tris-HCl (pH 7.5-9.0), and 500 mM glycine-NaoH (pH 9.0-10.0). The substrate, p-nitrophenylsulfate, was dissolved in each of the above buffers (1 mg/ml). The enzyme-buffer solution (150 µl) was mixed with 50 µl of the substrate solution in the same buffer as the enzyme, and the mixture was incubated for 30 minutes at 37°C. The reaction was quenched by addition of 100 µl of 0.2 N sodium hydroxide solution. The enzyme activity in each buffer was determined spectrophotometrically by UV at 415 nm. […] The stock enzyme solution was dialyzed against water to remove salts. The dialyzed solution (10 µl) was mixed with 40 µl of 50 mM Tris-HCl buffer (pH 7.5). An aliquot (10 µl) of this solution was mixed with 40 µl each of the buffer listed in (a) and incubated for 30 minutes at 30°C. To this solution (50 µl) were added 100 µl of 500 mM Tris-HCl (pH 9.0) and 50 µl of substrate in water (1 mg/ml), and the mixture was incubated at 37°C for 30 minutes to determine the residual enzyme activity. […] Enzyme (0.6 u) in 150 µl of 50 mM Tris-HCl (pH 8.5) was incubated with p-nitrophenylsulfate in the same buffer (1 mg/ml, 50 µl) for 30 minutes at various temperatures. […] Enzyme preparations (0.6 u) in 50 mM Tris-HCl (150 µl, pH 8.5) were incubated for 15 minutes at various temperatures and then cooled in an ice bath. p-Nitrophenylsulfate in the same buffer (1 mg/ml, 50 µl) was added to the enzyme solution, and the mixture was incubated for 30 minutes at 37°C. […] Fifty µl of enzyme solution (0.6 u in 50 mM Tris-HCl, pH 8.5), 80 µl of 50 mM Tris-HCl (pH 8.5), 50 µl of p-nitrophenyl sulfate (1 mg/ml in same buffer), and 20 µl of ion (10 mM) were mixed. […] After 18 hours, 100 µl of methanol was added, and 100 µl of sample was analyzed on a silica gel TLC plate using a solvent system consisting of chloroform-methanol (10:1 v/v). […]

[5] = system: Es-1 sulfatase; experiment: Effect of salts on sulfatase activity; type: biochemical, Streptomyces griseorubiginosus S980-14; details: 5 mM of a salt, 30 minutes at 37°C, pH 8.5
Experimental: as §1

COc1cc([C@@H]2c3cc4c(cc3[C@@H](O[C@@H]3O[C@@H]5CO[C@@H](C)O[C@H]5[C@H](O)[C@H]3O)[C@H]3COC(=O)[C@H]23)OCO4)cc(OC)c1OS(=O)(=O)O [(III), etoposide 4'-sulfate]
cytotoxicity [1]: much less cytotoxic than etoposide itself | substrate for the enzyme [2]: are substrates

COc1cc(C2c3cc4c(cc3C(OC3OC5COC(C)OC5C(OC(C)=O)C3OC(C)=O)C3COC(=O)C23)OCO4)cc(OC)c1OS(=O)(=O)O (centres unmarked) [(IV), 2'',3''-di-O-acetyl-etoposide-4'-sulfate]
substrate for the enzyme [2]: are substrates

COc1cc(C2c3cc4c(cc3C(OC3OC5COC(C)OC5C(O)C3OS(=O)(=O)O)C3COC(=O)C23)OCO4)cc(OC)c1O (centres unmarked) [(V), etoposide 2''-sulfate]
substrate for the enzyme [2]: are not

COc1cc(C2c3cc4c(cc3C(OC3OC5COC(C)OC5C(OS(=O)(=O)O)C3O)C3COC(=O)C23)OCO4)cc(OC)c1O (centres unmarked) [(VI), etoposide 3''-sulfate]
substrate for the enzyme [2]: are not

CCCCC/C=C/C=C\C=C/C(O)C(C)C(C/C=C/C1OC(=O)C=CC1O)OS(=O)(=O)O (centres unmarked) [BU-3285T]
conversion to its desulfated derivative [3]: approximately 70%

[Ca+2] [Ca⁺⁺]
sulfatase activity restored ([4]; addition of 1 mM of Ca⁺⁺ to the EDTA treated enzyme): 95% | sulfatase activity level ([4]; calcium ion concentrations over 1 mM added to EDTA treated enzyme): close to the original level

O=C(O)CN(CCN(CC(=O)O)CC(=O)O)CC(=O)O [EDTA]
sulfatase activity ([4]; enzyme treated with 10 mM of EDTA followed by dialysis against water at 4°C): disappeared

O=P(O)(O)O [phosphate ion]
sulfatase activity (effect of salts) [5]: strongly inhibited

[Cl-].[Na+] [sodium chloride]
sulfatase activity (effect of salts) [5]: strongly inhibited

Reference: EP0456229A2, “Arylsulfatase” (Bristol-Myers Squibb Company, priority 1990, dated 1991)
